What was measured:
murine langerin [1] = molecular target: T1, murine langerin (Mus musculus, UniProt Q8VBX4); assay: STD NMR measurements (fragment screening and epitope mapping), STD amplification factor; format: binding
T1 sequence (Q8VBX4 1-331): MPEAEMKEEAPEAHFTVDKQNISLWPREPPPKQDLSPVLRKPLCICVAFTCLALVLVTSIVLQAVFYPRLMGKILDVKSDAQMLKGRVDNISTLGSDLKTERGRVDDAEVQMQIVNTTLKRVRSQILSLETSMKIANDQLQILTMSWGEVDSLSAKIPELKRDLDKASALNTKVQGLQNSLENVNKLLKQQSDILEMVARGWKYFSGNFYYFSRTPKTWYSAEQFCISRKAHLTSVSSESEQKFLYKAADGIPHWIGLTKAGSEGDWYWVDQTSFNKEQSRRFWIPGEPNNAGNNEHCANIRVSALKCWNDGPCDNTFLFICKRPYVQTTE
Description: STD NMR experiments were performed as described elsewhere (Aretz et al., [2018]). Briefly, 10 μM murine langerin was screened against a library of 660 fragments at a ligand concentration [L] = 0.2 mM using a saturation time of tsat = 4 s. Hits were counter-screened by SPR (see the section Estimation of Affinity Using Surface Plasmon Resonance), enabling affinity estimation and hit validation. For SPR-validated hits, the STD amplification factor was determined as reported earlier (Mayer and Meyer, [2001]) and plotted against affinity (Figure 1A). For epitope mapping of thiazolopyrimidine derivatives (Figure 2E), protein concentration was [P] = 20 μM, ligand concentration was [L] = 0.5–1 mM, and tsat = 1 s. Affinity of all derivatives was estimated by SPR (see the section Estimation of Affinity Using Surface Plasmon Resonance), and the STD amplification factor was determined as reported earlier for the proton in the 7-position of the thiazolopyrimidine scaffold (Mayer and Meyer, [2001]). Spectra were analyzed in MestReNova 10.0.0.

murine langerin [2] = molecular target: T1, murine langerin; set-up: method as in Aretz et al. (2018); settings: estimated by SPR; murine langerin on CM7 chip; 25 mM HEPES pH 7.6, 150 mM NaCl, 5 mM CaCl2, 0.005% Tween-20; ref Aretz et al. (2018); read-out: Affinity; cited from earlier work
[3] = molecular target: Beta-lactamase (ampC; P00811); settings: read-out: Affinity; AmpC fragment complexes, Figure 2; ref Barelier et al., 2014; cited from earlier work
[4] = molecular target: Glycogen synthase kinase-3 beta (GSK3B; P49841); settings: GSK3b complex PDB 4J71, Figure S4; read-out: Affinity; cited from earlier work
[5] = molecular target: Heat shock protein HSP 90-alpha (HSP90AA1; P07900); set-up: method as in Roughley and Hubbard, 2011; settings: HSP90 fragment complexes, Figure 2; ref Roughley and Hubbard, 2011; read-out: Affinity; cited from earlier work
[6] = molecular target: cAMP and cAMP-inhibited cGMP 3',5'-cyclic phosphodiesterase 10A (PDE10A; Q9Y233); set-up: method as in Recht et al., 2014; settings: PDE10A fragment complexes, Figure 2; ref Recht et al., 2014; read-out: Affinity; cited from earlier work
[7] = Figure 1a fragment screening, [P] = 10 μM, [L] = 0.2 mM, tsat = 4 s

| STD amplification factor (murine langerin [1]; [7]) | SMILES | Kd (murine langerin [2]) | further results |
| --- | --- | --- | --- |
| 24 | O=C(Nc1ccccc1O)c1cccnc1Cl [S60] | 2.4 ± 0.1 mM | – |
| 37 | Cn1cc(CC(=O)O)c2ccccc21 [S53] | 3 ± 0.1 mM | – |
| 10 | O=C(O)c1cccn(Cc2ccccc2)c1=O [S55] | 24.7 ± 10.3 mM | – |
| – | C[C@@H](C(=O)O)N(c1ccccc1)S(C)(=O)=O [4KZB] | – | Kd [3]: 1.3 mM |
| 55 | O=C(O)Cc1cccc2occc12 [S6] | 4.3 ± 0.5 mM | – |
| 44 | CC(=O)c1ccn(S(=O)(=O)c2ccccc2)c1 [S36] | 19 ± 1 mM | – |
| 2 | CCN1C(=O)c2ccccc2NC12CCCC2 [S37] | 13 ± 2 mM | – |
| 16 | O=c1c(-c2ccn[nH]2)cnc2sccn12 [compound 1] | 0.8 ± 0.1 mM | STD amplification factor (murine langerin [1]; Figure 2e thiazolopyrimidine SAR, proton in 7-position, [P] = 20 μM, [L] = 0.5–1 mM, tsat = 1 s): 1.8 |
| 10 | COc1ccc2c(c1)C(CC(=O)O)CC2=O (stereo not shown) [S12] | 1.1 ± 0.2 mM | – |
| 33 | N#Cc1c(N)sc2c1CCCC2 [S13] | 1.5 ± 0.3 mM | – |
| – | C[C@@H]1Nc2cccnc2NC1=O [CHEMBL3941552] | – | Kd [4]: > 3 mM |
| 19 | OCc1cc(-c2ccccc2)on1 [S58] | 2.3 ± 0.1 mM | – |
| 19 | Cc1nnc(-c2ccccc2)nc1O [S3] | 4.7 ± 0.6 mM | – |
| 41 | CN(C)S(=O)(=O)c1cccc(C(=O)O)c1 [S15] | 11.3 ± 3 mM | – |
| – | CCC(=O)c1ccc(O)cc1O [CHEMBL539379] | – | Kd [5]: 0.57 mM |
| 3 | CN(C)C(=O)c1csc(-c2ccccc2)n1 [S52] | 2.7 ± 0.4 mM | – |
| 2 | CC(=O)Nc1ccc2nc(C)oc2c1 [S57] | 5.7 ± 0.4 mM | – |
| – | O=C(O)c1sccc1S(=O)(=O)NC1CC1 [4KZA] | – | Kd [3]: 0.2 mM |
| 21 | NC(=O)c1ccc(Cl)s1 [S18] | 3.5 ± 0.2 mM | – |
| 5 | COc1ccccc1/C=C1/C(=O)N=C(N)N1C [S31] | 4 ± 2 mM | – |

| STD amplification factor (murine langerin [1]; [7]) | SMILES | Kd (murine langerin [2]) | further results |
| --- | --- | --- | --- |
| – | COC(=O)Cc1cc(O)cc(O)c1 [CHEMBL540934] | – | Kd [5]: 0.49 mM |
| – | CCN1C(=O)CC(=O)N(CC)C1=S [CHEMBL2136061] | – | Kd [3]: 1.6 mM |
| 13 | CCNCc1cc(O)ccc1Br [S59] | 2 ± 0.3 mM | – |
| 79 | COc1cc(C(=O)O)c(Br)cc1C [S42] | 5.4 ± 0.9 mM | – |
| 4 | Cc1cc(C)c(S(=O)(=O)C(C)C)c(Cl)n1 [S38] | 4.7 ± 0.7 mM | – |
| 43 | COC(=O)c1cc2c(s1)CCC2 [S65] | 4.5 ± 0.7 mM | – |
| – | CC1CCCC(C(=O)O)N1C(=O)CCS (stereo not shown) [CHEMBL331575] | – | Kd [3]: 0.8 mM |
| 23 | Nc1cccc2c1CN(C1CCCCC1)C2=O [S11] | 0.7 ± 0.2 mM | – |
| 86 | Cc1ccsc1/C=C/C(=O)O [S8] | 3.4 ± 0.4 mM | – |
| 36 | O=C(O)/C=C/c1ccc2c(c1)OCCO2 [S14] | 2.2 ± 0.2 mM | – |
| 7 | CNC(=O)Nc1nnc(C(C)(C)C)s1 [S44] | 2.9 ± 0.4 mM | – |
| 8 | c1ccc(-c2nnc3n2CCCC3)cc1 [S30] | 10 ± 3 mM | – |
| – | NC(=O)c1ccccc1N [CHEMBL43175] | – | Kd [5]: > 0.4 mM |
| 49 | COC(=O)c1cc(C)c(N)c(Br)c1 [S39] | 28 ± 9 mM | – |
| 13 | CCC(C)(C(=O)O)c1cccs1 (stereo not shown) [S21] | 3.3 ± 0.2 mM | – |
| 16 | O=C1NC(=O)C(Cc2ccncc2)S1 (stereo not shown) [S61] | 3.8 ± 0.3 mM | – |
| 44 | Nc1ccc2sc(C(=O)O)cc2c1 [S66] | 11.6 ± 0.1 mM | – |
| – | Cc1nc2ccccc2c(=O)[nH]1 [CHEMBL395092] | – | Kd [6]: 0.99 mM |
| 4 | COc1cc(C(C)=O)ccc1N [S63] | 9 ± 1 mM | – |
| 3 | COc1ccc(NS(C)(=O)=O)cc1 [S56] | 16.8 ± 3.6 mM | – |

| SMILES | STD amplification factor (murine langerin [1]; [7]) | Kd (murine langerin [2]) | further results |
| --- | --- | --- | --- |
| CN(C)C(=O)Oc1cccc(C(=O)O)c1 [S22] | 24 | ~4 mM | – |
| O=C1NC(=O)[C@@H]2CN(Cc3ccccc3)C[C@H]12 [S23] | 4 | 4.9 ± 0.2 mM | – |
